Reference: patent publication US20230092294A1, “COMPOSITIONS AND METHODS FOR POTENTIATING IMMUNE RESPONSE” (Kumquat Biosciences Inc., priority 2019, published 2023)

Key:
[1] = test system: HER-2 positive tumor line (OVCAR-3); assay: CAR-T killing assay (Example 7); format: cell-based, human
Source text: HER-2 specific CAR-T cells (CAR-Ts) were generated by transducing primary human CD3+ T cells (Discovery Life Sciences) with a lentivirus expressing a chimeric antigen receptor specific to human HER2, as well as GFP (Creative Bio). Prior to transduction, T cells were stimulated overnight with anti-CD3 and anti-CD28 antibodies coated onto magnetic beads (Invitrogen) at a 1:1 bead-to-cell ratio. Four days after transduction, the beads were removed and the following day CAR-Ts were sorted based on GFP expression and expanded in hIL7 ([…]) (Peprotech) and hIL15 (5 ng/mL) (Peprotech) for an additional 8 days. […]
CAR-Ts were pretreated with 0.1% DMSO (vehicle control) or a PTPN22 inhibitor (Compound A) for 1-2.5 hours prior to co-culture with cell lines at indicated concentrations. […] Tumor killing was assessed by comparing DMSO-treated CAR-Ts to PTPN22 inhibitor-treated CAR-Ts using either flow cytometry or Incucyte imaged-based assessment of tumor cell viability, at various effector:target ratios. Percent killing was assessed by calculating the amount of viable cells at a given time point as compared to untreated tumor cells (spontaneous release, marked “No CAR-T” in FIG. 2), tumor cells treated with PTPN22 inhibitor, and tumor cells cultured with DMSO treated CAR-T cells as a control.

[2] = test system: HER2-positive OVCAR-3 ovarian cancer cells; assay: Additional CAR-T killing assay (Example 11); format: cell-based, human; details: HER2 scFv-CD28-CD3z-CAR-T cells from Donor 1 or Donor 2, compound-treated 1h at 1, 3 or 10 μM; co-culture 2 h; vs DMSO; FIG. 5
Source text: HER2 scFv-CD28-CD3z-CAR-T (Creative Bio) lentiviral particles were generated via transfection of 293T cells using Lipofectamine 2000 transfection reagent (ThermoFisher) according to manufacturer's instructions Human CD3+ T cells were negatively selected from peripheral blood mononuclear cells (PBMCs) (Discovery Life Sciences) from two individual healthy donors (Donor 1, Donor 2) using EasySep Human T cell Isolation Kit (StemCell Technologies #17951) and subsequently activated at a concentration of 0.5×10^6 cells/mL with Human T Expander Dynabeads (Gibco) (Thermo Fisher Scientific #11141D) at a ratio of 1 bead per cell in CTS Optimizer T cell expansion serum free medium (SFM) (Thermo Fisher Scientific #A1048501) supplemented with recombinant human IL-7 (10 ng/mL) and recombinant human IL-15 (5 ng/mL) (Peprotech #200-02). […]
For the killing assay, HER2-positive OVCAR-3 (ATCC #HTB-161) ovarian cancer cells stably transduced with IncuCyte Nuclight Red Lentivirus (Essen Biosciences #4706) in OVCAR media (RPMI 1640+20% FBS, 1% Pen-Strep +0.01 mg/mL human insulin) were plated (1.5×10^4 cells/well) in 96-well flat-bottom plates and incubated at 37° C. to allow for overnight adherence to serve as target cells. […] Tumor cell death was quantified on a ZE5 flow cytometer (Bio-Rad).

For `O=C(O)c1cc2c(C#Cc3cccc(C(F)(F)F)c3)c(-c3ccccc3)oc2cc1O` [Compound A], the “tumor cell killing activity of CAR-T cells” value ([1]; HER-2 specific CAR-Ts pretreated 1-2.5 hours then washed, compared to control cells treated with DMSO, FIG. 2) was “higher tumor cell killing activity”, the “increase in cell killing” value ([1]; HER-2 specific CAR-Ts transiently pretreated 1-2.5 hours then washed, compared to DMSO control, FIG. 3) was no less than 1.5 fold and the “tumor cell killing activity of CAR-T cells” value [2] was “higher tumor cell killing activity”.
